Here are results for one compound from article PMC6287826, “Regulation of histone deacetylase 3 by metal cations and 10-hydroxy-2E-decenoic acid: Possible epigenetic mechanisms of queen-worker bee differentiation” (PLoS ONE, 2018).

This assay addresses T1, histone deacetylase 3 (HDAC3) (Homo sapiens, UniProt O15379).
T1 construct: full length human HDAC3 (NP_003874.2) with a C-terminal FLAG tag, in complex with human NCOR2 amino acids 395–489 with an N-terminal 6xHis tag; with NCOR2 (SMRT) amino acids 395–489
Briefly: Fluor de Lys fluorescent deacetylase assay, fractional activity vs [10-HDA]. Format: biochemical.

T1 sequence (O15379 whole entry, the tested form may be a part): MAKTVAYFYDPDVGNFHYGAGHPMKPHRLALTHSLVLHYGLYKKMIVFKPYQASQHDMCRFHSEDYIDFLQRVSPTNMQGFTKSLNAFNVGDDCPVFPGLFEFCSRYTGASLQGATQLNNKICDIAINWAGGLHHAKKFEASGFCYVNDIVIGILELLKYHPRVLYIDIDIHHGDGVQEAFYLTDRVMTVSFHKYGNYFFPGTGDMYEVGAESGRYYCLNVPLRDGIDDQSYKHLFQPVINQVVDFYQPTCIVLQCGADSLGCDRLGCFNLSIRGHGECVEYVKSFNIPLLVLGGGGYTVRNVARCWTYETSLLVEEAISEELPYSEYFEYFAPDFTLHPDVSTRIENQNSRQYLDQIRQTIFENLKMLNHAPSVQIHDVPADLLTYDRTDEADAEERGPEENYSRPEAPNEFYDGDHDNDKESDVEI
T1 sequence (Q9Y618 395-489 partner): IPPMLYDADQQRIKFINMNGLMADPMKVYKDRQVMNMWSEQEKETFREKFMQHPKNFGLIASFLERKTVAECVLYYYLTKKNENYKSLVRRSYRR

As usually defined, the Ki is a measure of affinity in units of concentration, obtained from inhibition or displacement. Low readings indicate tighter binding, high ones weaker binding. `O=C(O)/C=C/CCCCCCCO` [10-HDA, 10-hydroxy-2E-decenoic acid] displayed a Ki of 5.32 mM.
